Assay results taken from ChEMBL document CHEMBL3045315, “Effect of ring A and ring B substitution on the cytotoxic potential of pyrazole tethered chalcones” (Med Chem Res, 2012).

Assays:
Format in all cases: functional, cell-based
PC-3 = assay: Cytotoxicity against Homo sapiens (human) PC3 cells after 48 hr by SRB assay; conditions: PC-3, 48 h
HEp-2 = assay: Cytotoxicity against Homo sapiens (human) Hep2 cells after 48 hr by SRB assay; conditions: HEp-2, 48 h
IMR-32 = assay: Cytotoxicity against Homo sapiens (human) IMR32 cells after 48 hr by SRB assay; conditions: IMR-32, 48 h
OVCAR = assay: Cytotoxicity against Homo sapiens (human) OVCAR cells after 48 hr by SRB assay

In the case of COc1ccc(C2CC(c3cccc([N+](=O)[O-])c3)=NN2C(C)=O)cc1OC (centres undefined), the IC50 (PC-3) is reported as 6.78 µM, the IC50 (HEp-2) is reported as 7.81 µM and the IC50 (IMR-32) is reported as 6.22 µM. The IC50 (OVCAR) was 8.11 µM.
In the case of COc1ccc(C2CC(c3ccc4ccccc4c3)=NN2C(C)=O)cc1 (centres undefined), the IC50 (PC-3) is reported as 4.53 µM, the IC50 (HEp-2) is reported as 3.23 µM and the IC50 (IMR-32) is reported as 4.12 µM. It also gave an IC50 (OVCAR) of 5.79 µM.
In the case of COc1cc(C2CC(c3ccco3)=NN2C(C)=O)ccc1O (centres undefined), the IC50 (PC-3) is reported as 12.9 µM, the IC50 (HEp-2) is reported as 10.1 µM and the IC50 (IMR-32) is reported as 23.3 µM. For the same compound, the IC50 (OVCAR) was 11.3 µM.
CC(=O)N1N=C(c2cccc3ccccc23)CC1c1cccc(Br)c1 (centres undefined) gave an IC50 (PC-3) of 12 µM, an IC50 (HEp-2) of 9.88 µM and an IC50 (IMR-32) of 11.9 µM. The IC50 (OVCAR) was 12.3 µM.
Work on COc1ccc(OC)c(C2CC(c3cccc4ccccc34)=NN2C(C)=O)c1 (centres undefined) yielded an IC50 (PC-3) of 1.98 µM, an IC50 (HEp-2) of 1.31 µM and an IC50 (IMR-32) of 1.58 µM. For the same compound, the IC50 (OVCAR) was 2.65 µM.
CC(=O)N1N=C(c2ccccc2)CC1c1cccc(Cl)c1Cl (centres undefined) showed an IC50 (PC-3) of 31.6 µM, an IC50 (HEp-2) of 24 µM and an IC50 (IMR-32) of 42.9 µM. For the same compound, the IC50 (OVCAR) was 36.8 µM.
CC(=O)N1N=C(c2ccc3ccccc3c2)CC1c1ccco1 (centres undefined) was tested, and the IC50 (PC-3) was 23 µM, the IC50 (HEp-2) was 19 µM and the IC50 (IMR-32) was 11 µM. For the same compound, the IC50 (OVCAR) was 18 µM.
CC(=O)N1N=C(c2cccc3ccccc23)CC1c1cccc(Cl)c1Cl (centres undefined) gave an IC50 (PC-3) of 20.1 µM, an IC50 (HEp-2) of 16.8 µM and an IC50 (IMR-32) of 22.1 µM. The IC50 (OVCAR) was 19.1 µM.
CC(=O)N1N=C(c2ccco2)CC1c1ccc(Br)cc1 (centres undefined) was tested, and the IC50 (PC-3) was 42.1 µM, the IC50 (HEp-2) was 51.2 µM and the IC50 (IMR-32) was 47.8 µM. It also gave an IC50 (OVCAR) of 18.9 µM.
COc1cc(C2CC(c3ccc(Br)cc3)=NN2C(C)=O)cc(OC)c1OC (centres undefined) gave an IC50 (PC-3) of 3.45 µM, an IC50 (HEp-2) of 4.53 µM and an IC50 (IMR-32) of 3.13 µM. It also gave an IC50 (OVCAR) of 4.78 µM.
Work on CC(=O)N1N=C(c2ccc3ccccc3c2)CC1c1ccccc1[N+](=O)[O-] (centres undefined) yielded an IC50 (PC-3) of 3.01 µM, an IC50 (HEp-2) of 3.63 µM and an IC50 (IMR-32) of 3.36 µM. For the same compound, the IC50 (OVCAR) was 3.48 µM.
CC(=O)N1N=C(c2ccc3ccccc3c2)CC1c1cccc(Br)c1 (centres undefined) showed an IC50 (PC-3) of 10.9 µM, an IC50 (HEp-2) of 8.78 µM and an IC50 (IMR-32) of 9.87 µM. For the same compound, the IC50 (OVCAR) was 10.8 µM.
COc1cc(C2CC(c3ccc4ccccc4c3)=NN2C(C)=O)cc(OC)c1OC (centres undefined) gave an IC50 (PC-3) of 0.57 µM, an IC50 (HEp-2) of 0.53 µM and an IC50 (IMR-32) of 0.67 µM. It also gave an IC50 (OVCAR) of 0.64 µM.
Compound CC(=O)N1N=C(c2ccco2)CC1c1ccc(Cl)cc1 (centres undefined) has an IC50 (PC-3) of 39 µM, an IC50 (HEp-2) of 57.4 µM and an IC50 (IMR-32) of 38.9 µM. It also gave an IC50 (OVCAR) of 31.3 µM.
Work on CC(=O)N1N=C(c2ccco2)CC1c1ccccc1 (centres undefined) yielded an IC50 (PC-3) of 21.3 µM, an IC50 (HEp-2) of 32.1 µM and an IC50 (IMR-32) of 29.1 µM. For the same compound, the IC50 (OVCAR) was 31.3 µM.
CC(=O)N1N=C(c2ccccc2)CC1c1ccc(N(C)C)cc1 (centres undefined) was tested, and the IC50 (PC-3) was 7.88 µM, the IC50 (HEp-2) was 14.6 µM and the IC50 (IMR-32) was 9.66 µM. For the same compound, the IC50 (OVCAR) was 12 µM.
In the case of CC(=O)N1N=C(c2ccco2)CC1c1ccc2c(c1)OCO2 (centres undefined), the IC50 (PC-3) is reported as 16.7 µM, the IC50 (HEp-2) is reported as 20 µM and the IC50 (IMR-32) is reported as 12.3 µM. The IC50 (OVCAR) was 12.3 µM.
In the case of CC(=O)N1N=C(c2cccc([N+](=O)[O-])c2)CC1c1ccc2c(c1)OCO2 (centres undefined), the IC50 (PC-3) is reported as 8.21 µM, the IC50 (HEp-2) is reported as 7.65 µM and the IC50 (IMR-32) is reported as 7.89 µM. The IC50 (OVCAR) was 9.87 µM.
Work on CC(=O)N1N=C(c2ccccc2)CC1c1ccc2c(c1)OCO2 (centres undefined) yielded an IC50 (PC-3) of 8.89 µM, an IC50 (HEp-2) of 6.65 µM and an IC50 (IMR-32) of 7.64 µM. The IC50 (OVCAR) was 8.73 µM.
COc1ccc(C2CC(c3cccc4ccccc34)=NN2C(C)=O)cc1 (centres undefined) gave an IC50 (PC-3) of 4.93 µM, an IC50 (HEp-2) of 3.73 µM and an IC50 (IMR-32) of 4.99 µM. It also gave an IC50 (OVCAR) of 6.71 µM.
For COc1cc(OC)c(C2CC(c3ccco3)=NN2C(C)=O)cc1OC (centres undefined), the IC50 (PC-3) was 8.98 µM, the IC50 (HEp-2) was 6.69 µM and the IC50 (IMR-32) was 7.76 µM. The IC50 (OVCAR) was 6.76 µM.
COc1cc(C2CC(c3ccccc3)=NN2C(C)=O)ccc1O (centres undefined) gave an IC50 (PC-3) of 7.56 µM, an IC50 (HEp-2) of 4.99 µM and an IC50 (IMR-32) of 5.78 µM. It also gave an IC50 (OVCAR) of 6.63 µM.
Compound COc1ccc(C2CC(c3ccc4ccccc4c3)=NN2C(C)=O)cc1OC (centres undefined) has an IC50 (PC-3) of 1.98 µM, an IC50 (HEp-2) of 1.01 µM and an IC50 (IMR-32) of 1.59 µM. The IC50 (OVCAR) was 2.45 µM.
CC(=O)N1N=C(c2ccc(Br)cc2)CC1c1ccccc1 (centres undefined) gave an IC50 (PC-3) of 29.9 µM, an IC50 (HEp-2) of 27.8 µM and an IC50 (IMR-32) of 22.4 µM. It also gave an IC50 (OVCAR) of 21.2 µM.
For COc1cc(C2CC(c3ccco3)=NN2C(C)=O)cc(OC)c1OC (centres undefined), the IC50 (PC-3) was 9.65 µM, the IC50 (HEp-2) was 21.3 µM and the IC50 (IMR-32) was 9.87 µM. For the same compound, the IC50 (OVCAR) was 10.9 µM.
For CC(=O)N1N=C(c2cccc3ccccc23)CC1c1ccco1 (centres undefined), the IC50 (PC-3) was 18 µM, the IC50 (HEp-2) was 17 µM and the IC50 (IMR-32) was 8 µM. For the same compound, the IC50 (OVCAR) was 13 µM.
Work on COc1ccc(C2CC(c3ccccc3)=NN2C(C)=O)cc1 (centres undefined) yielded an IC50 (PC-3) of 7.67 µM, an IC50 (HEp-2) of 10.7 µM and an IC50 (IMR-32) of 9.73 µM. The IC50 (OVCAR) was 13.8 µM.
In the case of COc1ccc(C2CC(c3ccc4ccccc4c3)=NN2C(C)=O)cc1O (centres undefined), the IC50 (PC-3) is reported as 2.04 µM, the IC50 (HEp-2) is reported as 1.02 µM and the IC50 (IMR-32) is reported as 1.49 µM. The IC50 (OVCAR) was 2.16 µM.
With COc1ccc(C2CC(c3cccc4ccccc34)=NN2C(C)=O)c(OC)c1OC (centres undefined) the IC50 (PC-3) was 1.22 µM, the IC50 (HEp-2) was 1.29 µM and the IC50 (IMR-32) was 1.79 µM. For the same compound, the IC50 (OVCAR) was 1.98 µM.
COc1cc(C2CC(c3cccc4ccccc34)=NN2C(C)=O)cc(OC)c1OC (centres undefined) was tested, and the IC50 (PC-3) was 1.09 µM, the IC50 (HEp-2) was 1.01 µM and the IC50 (IMR-32) was 1.54 µM. The IC50 (OVCAR) was 1.77 µM.
With CC(=O)N1CC(c2ccc3c(c2)OCO3)C(c2ccc3ccccc3c2)=N1 (centres undefined) the IC50 (PC-3) was 1.97 µM, the IC50 (HEp-2) was 1.01 µM and the IC50 (IMR-32) was 1.56 µM. The IC50 (OVCAR) was 3.45 µM.
